# Laboratory results: paper PMC5055185, “Dual pharmacological inhibition of glutathione and thioredoxin systems synergizes to kill colorectal carcinoma stem cells” (Cancer Medicine, 2016)
# Key:
# [1] = tested on: OUMS‐36 embryonic fibroblasts; experiment: intracellular ROS, CellROX Deep Red flow cytometry, OUMS-36; assay type: cell-based, human; details: treated 1 h (menadione 100 μmol/L, 30 min)
# Experimental: (§1) In order to estimate the effect of each inhibitor described above, intracellular reactive oxygen species (ROS) were measured using CellROX™ Deep Red reagent (Molecular Probes). Briefly, cells were seeded on 6‐well plates at 1 × 10^6 cells per well. After cells reached 90% confluence, cells were treated with designated reagents for 1 h. CellROX™ Deep Red reagent was added at a final concentration of 5 μmol/L to the culture medium and then incubated for 30 min at 37°C. Subsequently, the medium was removed and the cells were washed with PBS and detached using 0.25% trypsin‐EDTA. The resulting fluorescence was measured using a FACS Calibur flow cytometer (Becton Dickinson, Franklin Lakes, NJ). Menadione (100 μmol/L) was added 30 min before CellROX™ Deep Red reagent treatment as a reference ROS inducer. […] CD44v9 positivity of CTOS cells was analyzed as follows: Cancer spheroids were dispersed with serial treatments of TrypLE™ (20 min, GIBCO) and Accumax™ (10 min, Innovative Cell Technologies, San Diego, CA). Cell surface CD44v9 was stained with CD44v9 antibody (Cosmobio) as well as PE‐conjugated anti‐rat IgG2a (Becton Dickinson). The fluorescence was measured using a FACS Calibur flow cytometer (Becton Dickinson). Since CTOSs contained abundant auto‐fluorescent cells, we defined FL2^+FL1^− cells as authentic PE‐positive (Fig. S4). Thus, CD44v9‐positive rate was defined as FL2^+FL1^−/total live cells and CD44v9‐positive fraction was further gated and split between CD44v9^low and CD44v9^high (Fig. S4), to calculate the mean fluorescent intensity of CD44v9^high fraction.
# (§2) One hour after each drug treatment, cells were stained with CellROX DeepRed and intracellular ROS were quantified with FACS. Upper: histogram of fluorescent signal is represented. Lower. representative mean fluorescent intensity scores are shown. Note that without drug treatment (Control), intracellular ROS is higher in OUMS36 and TIG3 (embryonic fibroblasts) but lower in DLD-1 and HCT116 (CRC cell lines). ROS in DLD-1 was increased by auranofin. ROS in HCT116 was increased by all the inhibitors tested. […]
# [2] = tested on: TIG‐3 embryonic fibroblasts; experiment: intracellular ROS, CellROX Deep Red flow cytometry, TIG-3; assay type: cell-based, human; details: treated 1 h (menadione 100 μmol/L, 30 min)
# Experimental: as §1, §2
# HCT116 CRC cell line = experiment: intracellular ROS, CellROX Deep Red flow cytometry, HCT116; assay type: cell-based, human; details: treated 1 h (menadione 100 μmol/L, 30 min)
# Experimental: as §1
# One hour after each drug treatment, cells were stained with CellROX DeepRed and intracellular ROS were quantified with FACS. Upper: histogram of fluorescent signal is represented. Lower. representative mean fluorescent intensity scores are shown. Note that without drug treatment (Control), intracellular ROS is higher in OUMS36 and TIG3 (embryonic fibroblasts) but lower in DLD-1 and HCT116 (CRC cell lines). ROS in DLD-1 was increased by auranofin. ROS in HCT116 was increased by all the inhibitors tested. Menadione was used as a reference chemical to increase ROS.
# [3] = tested on: NRF2 target genes in colorectal CTOSs; experiment: qRT-PCR of NRF2 and TP53 target genes in colorectal CTOSs; assay type: cell-based, human; details: higher dose (auranofin 4, CB83 25, piperlongumine 10 μmol/L) for 24 h
# Experimental: Total RNA was purified using RNAiso Plus (Takara, Osaka, Japan). Reverse transcription was performed using PrimeScript™ with gDNA Eraser (Takara). For quantifying the copy number of each mRNA, we used a StepOne™ Real‐Time PCR System (Applied Biosystems, Waltham, MA) and the Taqman® method. Data were calculated according to the modified delta‐cycle of threshold (ΔCT) method. Normalized Log2 expression was defined as follows: (Log2 expression of a gene of interest) = 30 (arbitrary constant) + (CT of 18S rRNA) − (CT of a gene of interest). We used Log2 parameter for statistical analysis because mRNA expression follows a log‐normal distribution, whereas ΔCT follows normal distribution. A gene‐specific fluorescent probe was designed using a web‐based program (https://qpcr.probefinder.com/organism.jsp). […] Gene‐specific Taqman® probes were purchased from Life Technologies, (Waltham, MA, for Cat#, see Table S1 SpreadSheet2). For PCR, Thunderbird® Probe qPCR mix (Toyobo, Osaka, Japan) was used and the PCR conditions consisted of 40 cycles of two steps (95°C for 15 sec and 60°C for 50 sec).
# In order to judge the effect of drug treatments on gene expression, a repeated measures one‐way analysis of variance (ANOVA) was used to determine the variance of Log2 expression from four different groups (untreated, auranofin, CB83, and piperlongumine) using SPSS. Subsequently, the effect of each drug was determined by a paired t test as a post hoc analysis. The P‐values < 0.05 were defined as statistically significant.
# In order to estimate NRF2 compensation induced by pharmacological inhibition of TXNRD (auranofin), G6PD (CB83), or GSTπ (piperlongumine), we quantified gene expression of NRF2 target genes. Activation of NRF2 protein was confirmed by NRF2 phosphorylation (Fig. S5A).
# [4] = tested on: phosphorylated NRF2 in colorectal CTOSs; experiment: NRF2 phosphorylation by western blotting, colorectal CTOSs; assay type: cell-based, human; details: 24 hours, Auranofin 2µM, Piperlongumine 5µM, CB83 12.5 µM
# Experimental: From colorectal CTOS, whole‐cell proteins were dissolved with solubilizer (7 mol/L urea, 2 mol/L thiourea, 2% Triton X‐100, Wako) and the entangled genomic DNA was sheared by sonication for 30 min. Procedures for immunoblotting have been described elsewhere 6, 10. Primary antibodies used in this study are as follows: phosphorylated NRF2 from Abcam (#76026) and Histone H3 from Cell Signaling Technologies (#4499, Danvers, MA). Phosphorylation of NRF2 is well correlated with nuclear accumulation in HCCs 6. Representative data are shown in the figures; all experiments were reproduced at least twice with different passage points.
# Colorectal CTOSs were incubated with each inhibitor for 24 hours. Whole cell proteins were extracted and each well was loaded with same amount of proteins (40 µg for NRF2 and 10 µg for H3). Phosphorylation of NRF2 was measured by western blotting. Blotting for histone H3 serves as loading control.
# CRC cell lines = tested on: CRC cell lines; set-up: method as in PMID 25591719; details: cited from earlier work
# DLD‐1 CRC cell line = experiment: intracellular ROS, CellROX Deep Red flow cytometry, DLD-1; assay type: cell-based, human; details: treated 1 h (menadione 100 μmol/L, 30 min)
# Experimental: as §1, with “Since CTOSs contained abundant auto‐fluorescent cells, we defined FL2^+FL1^− cells as authentic PE‐positive (Fig. S4). Thus, CD44v9‐positive rate was defined as FL2^+FL1^−/total live cells and CD44v9‐positive fraction was further gated and split between CD44v9^low and CD44v9^high (Fig. S4), to calculate the mean fluorescent intensity of CD44v9^high fraction.” left out
# One hour after each drug treatment, cells were stained with CellROX DeepRed and intracellular ROS were quantified with FACS. […]
smiles,measurement,setting,value
Cc1ccc(C)c(S(=O)(=O)Nc2ccc(O)c3ccccc23)c1 [CB83],intracellular ROS response,[1],no ROS increase
same,intracellular ROS response,[2],no ROS increase
same,intracellular ROS response,HCT116 CRC cell line,increase of ROS
same,TXNRD1 mRNA expression change,[3],up‐regulated
same,NRF2 phosphorylation,[4],efficiently phosphorylated
same,GSH/GSSG ratios,CRC cell lines,failed to alter
same,NADPH/NADP+ ratios,CRC cell lines,decreased
"CC1=CC(=O)c2ccccc2C1=O [menadione, Menadione]",intracellular ROS response,[1],no ROS increase
same,intracellular ROS response,[2],no ROS increase
same,intracellular ROS response,DLD‐1 CRC cell line,increase of ROS
same,intracellular ROS response,HCT116 CRC cell line,increase of ROS
